In PubChem BioAssay AID248 (DTP/NCI, 2004):
Several values for one entry are separate records, joined by “and”; a condition that tells them apart may be missing. Equal entries are not always repeated. Inconclusive results and toxic doses are left out. Cut-off read from the data, not from the text of the source: active = T/C of 150% or more; inactive = T/C below 125%.

System: L1210 leukemia ip in BDF1 mice, survival T/C
Assay: NCI In Vivo Anticancer Drug Screen. Data for tumor model L1210 Leukemia (intraperitoneal) in B6D2F1 (BDF1) mice
Details: endpoint: mean survival time, higher = longer survival
In short: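 Tumor cells were implanted, animals were treated, and survival was followed. The result divides the treated measurement by the vehicle-control measurement.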

[1] = dose: 100.0 mg/kg/injection, schedule: Q01DX009 (ip), vehicle: Klucel (hydroxypropylcellulose) (HPC)
[2] = dose: 100.0 mg/kg/injection, schedule: Q04DX003 (ip), vehicle: Klucel (hydroxypropylcellulose) (HPC)
[3] = dose: 200.0 mg/kg/injection, schedule: Q01DX009 (ip), vehicle: Klucel (hydroxypropylcellulose) (HPC)
[4] = dose: 200.0 mg/kg/injection, schedule: Q04DX003 (ip), vehicle: Klucel (hydroxypropylcellulose) (HPC)
[5] = dose: 400.0 mg/kg/injection, schedule: Q01DX009 (ip), vehicle: Klucel (hydroxypropylcellulose) (HPC)
[6] = dose: 400.0 mg/kg/injection, schedule: Q04DX003 (ip), vehicle: Klucel (hydroxypropylcellulose) (HPC)
[7] = dose: 100.0 mg/kg/injection, schedule: Q01DX001 (ip), vehicle: saline
[8] = dose: 100.0 mg/kg/injection, schedule: Q04DX003 (ip), vehicle: saline
[9] = dose: 200.0 mg/kg/injection, schedule: Q01DX001 (ip), vehicle: saline
[10] = dose: 400.0 mg/kg/injection, schedule: Q01DX001 (ip), vehicle: saline
[11] = dose: 100.0 mg/kg/injection, schedule: Q04DX003 (ip), vehicle: saline with Tween-80

Measured: T/C

NC1=NC(c2ccc(Cl)cc2)N(c2ccc(S(N)(=O)=O)cc2)C(N)=N1 (centres undefined)
inactive: dose: 75.0 mg/kg/injection, schedule: Q01DX001 (ip), vehicle: saline 102 % of control | dose: 150.0 mg/kg/injection, schedule: Q01DX001 (ip), vehicle: saline 96 % of control

O=[N+]([O-])c1cccc(N=Cc2ccccc2)c1
inactive: [1] 117 % of control | [2] 88 % of control | [3] 111 % of control | [4] 96 % of control | [5] 88 % of control | [6] 97 % of control

CC1CC2OC(=O)C(O)(CO)C2CC2(C)C(=O)C=CC12 (centres undefined)
inactive: dose: 25.0 mg/kg/injection, schedule: Q04DX002 (ip), vehicle: saline 102 % of control | dose: 50.0 mg/kg/injection, schedule: Q04DX002 (ip), vehicle: saline 124 % of control | dose: 100.0 mg/kg/injection, schedule: Q04DX002 (ip), vehicle: saline 120 % of control

N#[N+]c1ccccc1-c1nc(N)nc(N)n1
inactive: dose: 25.0 mg/kg/injection, schedule: Q01DX009 (ip), vehicle: saline 110 % of control | dose: 25.0 mg/kg/injection, schedule: Q04DX003 (ip), vehicle: saline 113 % of control | dose: 50.0 mg/kg/injection, schedule: Q01DX009 (ip), vehicle: saline 100 % of control | dose: 50.0 mg/kg/injection, schedule: Q04DX003 (ip), vehicle: saline 103 % of control | [7] 99 % of control | dose: 100.0 mg/kg/injection, schedule: Q01DX009 (ip), vehicle: saline 92 % of control | [8] 96 % of control

CC(C)(CCN(CC(=O)O)CC(=O)O)[N+](=O)[O-]
inactive: [7] 112 % of control | [9] 96 % of control | [10] 102 % of control

COc1cc(/C=N\NC(=S)Nc2ccc(S(=O)(=O)N3CCCCC3)cc2)cc(OC)c1OC
inactive: dose: 100.0 mg/kg/injection, schedule: Q04DX002 (ip), vehicle: saline with Tween-80 98 % of control | dose: 200.0 mg/kg/injection, schedule: Q04DX002 (ip), vehicle: saline with Tween-80 103 % of control | dose: 400.0 mg/kg/injection, schedule: Q04DX002 (ip), vehicle: saline with Tween-80 90 % of control

CCN(CC)CC(O)c1ccnc2c(N)cc(OC)cc12 (centres undefined)
inactive: dose: 75.0 mg/kg/injection, schedule: Q01DX001 (ip), vehicle: acetone 104 % of control | dose: 150.0 mg/kg/injection, schedule: Q01DX001 (ip), vehicle: acetone 101 % of control

COc1ccc(-n2c(O)c(N=Nc3ccccc3C)c(=O)n(-c3ccccc3)c2=S)cc1
inactive: dose: 37.5 mg/kg/injection, schedule: Q01DX001 (ip), vehicle: Klucel (hydroxypropylcellulose) (HPC) 103 % of control | dose: 75.0 mg/kg/injection, schedule: Q01DX001 (ip), vehicle: Klucel (hydroxypropylcellulose) (HPC) 97 % of control | dose: 150.0 mg/kg/injection, schedule: Q01DX001 (ip), vehicle: Klucel (hydroxypropylcellulose) (HPC) 94 % of control

CC1(C)CCC(C)(C)c2cc(O)ccc21
inactive: [7] 94 % of control | [2] 92 % of control | [9] 96 % of control | [4] 92 % of control | [10] 89 % of control | [6] 87 % of control

CCOC(=O)NC(=O)Nc1ncn[nH]1
inactive: [8] 97 % of control | dose: 200.0 mg/kg/injection, schedule: Q04DX003 (ip), vehicle: saline 94 % of control | dose: 400.0 mg/kg/injection, schedule: Q04DX003 (ip), vehicle: saline 94 % of control

Cc1nc2ccccc2c(Br)c1Br
inactive: [7] 91 % of control | [9] 94 % of control | [10] 96 % of control

CCCC(C)c1ccccc1O (centres undefined)
inactive: [11] 95 % of control

CC1CC(OC(=O)CCN2CC2)CC(C)(C)C1 (centres undefined)
inactive: dose: 2.5 mg/kg/injection, schedule: Q01DX009 (ip), vehicle: Klucel (hydroxypropylcellulose) (HPC) 98 % of control | dose: 5.0 mg/kg/injection, schedule: Q01DX009 (ip), vehicle: Klucel (hydroxypropylcellulose) (HPC) 101 % of control | dose: 20.0 mg/kg/injection, schedule: Q01DX009 (ip), vehicle: Klucel (hydroxypropylcellulose) (HPC) 113 % of control | dose: 20.0 mg/kg/injection, schedule: Q04DX003 (ip), vehicle: Klucel (hydroxypropylcellulose) (HPC) 101 % of control | dose: 40.0 mg/kg/injection, schedule: Q01DX009 (ip), vehicle: Klucel (hydroxypropylcellulose) (HPC) 107 % of control | dose: 40.0 mg/kg/injection, schedule: Q04DX003 (ip), vehicle: Klucel (hydroxypropylcellulose) (HPC) 97 % of control | dose: 80.0 mg/kg/injection, schedule: Q04DX003 (ip), vehicle: Klucel (hydroxypropylcellulose) (HPC) 106 % of control

CCOC(OCC)C(=O)C(C#N)c1ccc(Cl)c(Cl)c1 (centres undefined)
inactive: dose: 5.0 mg/kg/injection, schedule: Q01DX001 (ip), vehicle: saline 109 % of control | dose: 10.0 mg/kg/injection, schedule: Q01DX001 (ip), vehicle: saline 100 % of control | dose: 20.0 mg/kg/injection, schedule: Q01DX001 (ip), vehicle: saline 105 % of control | dose: 40.0 mg/kg/injection, schedule: Q01DX001 (ip), vehicle: saline 97 % of control | dose: 80.0 mg/kg/injection, schedule: Q01DX001 (ip), vehicle: saline 97 % of control

O=C(NC(=S)Nc1cccc(Cl)c1)c1ccccc1
inactive: [1] 106 % of control | [2] 95 % of control | [3] 113 % of control | [4] 92 % of control | [6] 95 % of control

Cn1nnc2nnc(-c3ccccc3)n21
inactive: dose: 100.0 mg/kg/injection, schedule: Q01DX009 (ip), vehicle: saline with Tween-80 100 % of control | [11] 95 % of control | dose: 200.0 mg/kg/injection, schedule: Q01DX009 (ip), vehicle: saline with Tween-80 94 % of control | dose: 200.0 mg/kg/injection, schedule: Q04DX003 (ip), vehicle: saline with Tween-80 106 % of control | dose: 400.0 mg/kg/injection, schedule: Q01DX009 (ip), vehicle: saline with Tween-80 108 % of control | dose: 400.0 mg/kg/injection, schedule: Q04DX003 (ip), vehicle: saline with Tween-80 98 % of control

CC(C)(C)CCSC(=N)N
inactive: dose: 25.0 mg/kg/injection, schedule: Q04DX003 (ip), vehicle: saline with Tween-80 98 % of control | dose: 50.0 mg/kg/injection, schedule: Q04DX003 (ip), vehicle: saline with Tween-80 102 % of control | [11] 96 % of control

COC(=O)CCSCCC(=O)OC
inactive: [1] 105 % of control | [2] 103 % of control | [3] 97 % of control | [4] 101 % of control | [5] 95 % of control | [6] 105 % of control

CN1CCCN(C(=S)S)CC1
inactive: dose: 30.0 mg/kg/injection, schedule: Q01DX001 (ip), vehicle: saline 96 % of control | [7] 95 % of control

CCN(CC)S(=O)(=O)c1ccc(C(=O)O)cc1
inactive: [1] 101 % of control | [2] 101 % of control | [3] 104 % of control | [4] 105 % of control | [5] 103 % of control | [6] 92 % of control

O=C(c1ccc(F)cc1)C(F)(F)F
inactive: dose: 100.0 mg/kg/injection, schedule: Q01DX001 (ip), vehicle: Klucel (hydroxypropylcellulose) (HPC) 95 % of control and 101 % of control | dose: 100.0 mg/kg/injection, schedule: Q04DX003 (ip), vehicle: other 104 % of control | dose: 200.0 mg/kg/injection, schedule: Q01DX001 (ip), vehicle: Klucel (hydroxypropylcellulose) (HPC) 103 % of control | dose: 200.0 mg/kg/injection, schedule: Q04DX003 (ip), vehicle: other 108 % of control | dose: 400.0 mg/kg/injection, schedule: Q01DX001 (ip), vehicle: Klucel (hydroxypropylcellulose) (HPC) 95 % of control and 101 % of control | dose: 400.0 mg/kg/injection, schedule: Q04DX003 (ip), vehicle: other 94 % of control

CCN(CC)CCC(C=NCC(CCN(CC)CC)(c1cccc2ccccc12)C(C)C)(c1cccc2ccccc12)C(C)C (centres undefined)
inactive: dose: 1.5 mg/kg/injection, schedule: Q04DX002 (ip), vehicle: saline + alcohol 108 % of control | dose: 3.1 mg/kg/injection, schedule: Q04DX002 (ip), vehicle: saline + alcohol 102 % of control | dose: 6.25 mg/kg/injection, schedule: Q04DX002 (ip), vehicle: saline + alcohol 94 % of control | dose: 12.5 mg/kg/injection, schedule: Q04DX002 (ip), vehicle: saline + alcohol 92 % of control | dose: 25.0 mg/kg/injection, schedule: Q04DX002 (ip), vehicle: saline + alcohol 92 % of control | dose: 25.0 mg/kg/injection, schedule: Q04DX002 (ip), vehicle: saline with Tween-80 92 % of control
